Biological target: human LPAR1 (Homo sapiens (Human), UniProt Q92633)
Assay: LPAR1 intracellular calcium mobilization assay (antagonist mode, FLIPR)
Format: cell-based
Conditions: CHO-K1 EDG2 cells expressing human LPAR1, LPA 18:2 at EC80 (100 nM), test compound 0.5 nM to 10 μM

human LPAR1, sequence (Q92633 whole entry): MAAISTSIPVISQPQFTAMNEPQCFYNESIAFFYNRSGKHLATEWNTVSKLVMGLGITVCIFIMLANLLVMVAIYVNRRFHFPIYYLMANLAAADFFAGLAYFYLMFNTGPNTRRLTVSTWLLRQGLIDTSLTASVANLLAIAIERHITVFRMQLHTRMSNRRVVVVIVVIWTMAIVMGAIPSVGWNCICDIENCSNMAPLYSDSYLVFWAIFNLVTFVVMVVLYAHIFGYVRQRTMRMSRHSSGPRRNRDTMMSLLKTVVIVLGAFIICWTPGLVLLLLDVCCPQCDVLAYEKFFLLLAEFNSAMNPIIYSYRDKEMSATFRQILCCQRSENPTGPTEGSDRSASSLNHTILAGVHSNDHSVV

Row | SMILES | EC50
1 | CCOC(=O)Nc1ccc(-c2nnn(C)c2NC(=O)O[C@H](C)c2cccnc2Cl)nc1 [Compound 21, (R)-1-(2-chloropyridin-3-yl)ethyl (4-(5-((ethoxycarbonyl)amino)pyridin-2-yl)-1-methyl-1H-1,2,3-triazol-5-yl)carbamate] | 39.6 nM
2 | CC(C)COC(=O)Nc1ccc(-c2nnn(C)c2NC(=O)O[C@H](C)c2cccnc2Cl)nc1 [Compound 22, (R)-1-(2-chloropyridin-3-yl)ethyl (4-(5-((isobutoxycarbonyl)amino)pyridin-2-yl)-1-methyl-1H-1,2,3-triazol-5-yl)carbamate] | 43.4 nM
3 | CC(=O)Nc1ccc(-c2nnn(C)c2NC(=O)O[C@H](C)c2cccnc2Cl)nc1 [Compound 23, (R)-1-(2-chloropyridin-3-yl)ethyl (4-(5-acetamidopyridin-2-yl)-1-methyl-1H-1,2,3-triazol-5-yl)carbamate] | 1100 nM
4 | CC(=O)Nc1ccc(-c2nnn(C)c2NC(=O)O[C@H](CF)c2cccc(F)c2)nc1 [Compound 25, (S)-2-fluoro-1-(3-fluorophenyl)ethyl (4-(5-acetamidopyridin-2-yl)-1-methyl-1H-1,2,3-triazol-5-yl)carbamate] | 2270 nM
5 | Cc1cnc(F)cc1C(C)OC(=O)Nc1c(-c2ccc(NC(=O)C3CC(F)(F)C3)cn2)nnn1C (stereo not drawn) [Compound 26, 1-(2-fluoro-5-methylpyridin-4-yl)ethyl (4-(5-(3,3-difluorocyclobutane-1-carboxamido)pyridin-2-yl)-1-methyl-1H-1,2,3-triazol-5-yl)carbamate] | 587 nM
6 | Cc1cnc(F)cc1C(C)OC(=O)Nc1c(-c2ccc(NC(=O)C3(C#N)CC3)cn2)nnn1C (stereo not drawn) [Compound 27, 1-(2-fluoro-5-methylpyridin-4-yl)ethyl (4-(5-(1-cyanocyclopropane-1-carboxamido)pyridin-2-yl)-1-methyl-1H-1,2,3-triazol-5-yl)carbamate] | 1280 nM
7 | C[C@@H](OC(=O)Nc1c(-c2ccc(NC(=O)C3CC(F)(F)C3)cn2)nnn1C)c1cc(F)cnc1F [Compound 28, (R)-1-(2,5-difluoropyridin-3-yl)ethyl (4-(5-(3,3-difluorocyclobutane-1-carboxamido)pyridin-2-yl)-1-methyl-1H-1,2,3-triazol-5-yl)carbamate] | 29.1 nM
8 | C[C@@H](OC(=O)Nc1c(-c2ccc(NC(=O)c3ccccc3)cn2)nnn1C)c1cccnc1Cl [Compound 29, (R)-1-(2-chloropyridin-3-yl)ethyl (4-(5-benzamidopyridin-2-yl)-1-methyl-1H-1,2,3-triazol-5-yl)carbamate] | 261 nM
9 | CCCC(=O)Nc1ccc(-c2nnn(C)c2NC(=O)O[C@H](C)c2cccnc2Cl)nc1 [Compound 30, (R)-1-(2-chloropyridin-3-yl)ethyl (4-(5-butyramidopyridin-2-yl)-1-methyl-1H-1,2,3-triazol-5-yl)carbamate] | 516 nM
10 | COCC(=O)Nc1ccc(-c2nnn(C)c2NC(=O)O[C@H](C)c2cccnc2Cl)nc1 [Compound 31, (R)-1-(2-chloropyridin-3-yl)ethyl (4-(5-(2-methoxyacetamido)pyridin-2-yl)-1-methyl-1H-1,2,3-triazol-5-yl)carbamate] | 2330 nM
11 | C[C@@H](OC(=O)Nc1c(-c2ccc(NC(=O)C3(C)CC3)cn2)nnn1C)c1cccnc1Cl [Compound 32, (R)-1-(2-chloropyridin-3-yl)ethyl (1-methyl-4-(5-(1-methylcyclopropane-1-carboxamido)pyridin-2-yl)-1H-1,2,3-triazol-5-yl)carbamate] | 799 nM
12 | CCC(=O)Nc1ccc(-c2nnn(C)c2NC(=O)O[C@H](C)c2cccnc2Cl)nc1 [Compound 33, (R)-1-(2-chloropyridin-3-yl)ethyl (1-methyl-4-(5-propionamidopyridin-2-yl)-1H-1,2,3-triazol-5-yl)carbamate] | 1020 nM
13 | C[C@@H](OC(=O)Nc1c(-c2ccc(NC(=O)C3CC3)cn2)nnn1C)c1cccnc1Cl [Compound 34, (R)-1-(2-chloropyridin-3-yl)ethyl (4-(5-(cyclopropanecarboxamido)pyridin-2-yl)-1-methyl-1H-1,2,3-triazol-5-yl)carbamate] | 429 nM
14 | C[C@@H](OC(=O)Nc1c(-c2ccc(NC(=O)C3CCC3)cn2)nnn1C)c1cccnc1Cl [Compound 35, (R)-1-(2-chloropyridin-3-yl)ethyl (4-(5-(cyclobutanecarboxamido)pyridin-2-yl)-1-methyl-1H-1,2,3-triazol-5-yl)carbamate] | 103 nM
15 | C[C@@H](OC(=O)Nc1c(-c2ccc(NC(=O)C(F)F)cn2)nnn1C)c1cccnc1Cl [Compound 36, (R)-1-(2-chloropyridin-3-yl)ethyl (4-(5-(2,2-difluoroacetamido)pyridin-2-yl)-1-methyl-1H-1,2,3-triazol-5-yl)carbamate] | 112 nM
16 | C[C@@H](OC(=O)Nc1c(-c2ccc(NC(=O)C3CC(F)(F)C3)cn2)nnn1C)c1cccnc1Cl [Compound 37, (R)-1-(2-chloropyridin-3-yl)ethyl (4-(5-(3,3-difluorocyclobutane-1-carboxamido)pyridin-2-yl)-1-methyl-1H-1,2,3-triazol-5-yl)carbamate] | 54.6 nM
17 | C[C@@H](OC(=O)Nc1c(-c2ccc(NC(=O)C3CNC3)cn2)nnn1C)c1cccnc1Cl [Compound 38, (R)-1-(2-chloropyridin-3-yl)ethyl (4-(5-(azetidine-3-carboxamido)pyridin-2-yl)-1-methyl-1H-1,2,3-triazol-5-yl)carbamate] | 10000 nM
18 | C[C@@H](OC(=O)Nc1c(-c2ccc(NC(=O)C3(C#N)CC3)cn2)nnn1C)c1cc(F)cnc1F [Compound 39, (R)-1-(2,5-difluoropyridin-3-yl)ethyl (4-(5-(1-cyanocyclopropane-1-carboxamido)pyridin-2-yl)-1-methyl-1H-1,2,3-triazol-5-yl)carbamate] | 50.8 nM
19 | C[C@@H](OC(=O)Nc1c(-c2ccc(NC(=O)C3(Cl)CC3)cn2)nnn1C)c1cccnc1Cl [Compound 40, (R)-1-(2-chloropyridin-3-yl)ethyl (4-(5-(1-chlorocyclopropane-1-carboxamido)pyridin-2-yl)-1-methyl-1H-1,2,3-triazol-5-yl)carbamate] | 75.2 nM
20 | C[C@@H](OC(=O)Nc1c(-c2ccc(NC(=O)C3CC4(C3)CC(F)(F)C4)cn2)nnn1C)c1cccnc1Cl [Compound 41, (R)-1-(2-chloropyridin-3-yl)ethyl (4-(5-(6,6-difluorospiro[3.3]heptane-2-carboxamido)pyridin-2-yl)-1-methyl-1H-1,2,3-triazol-5-yl)carbamate] | 38.1 nM
21 | C[C@@H](OC(=O)Nc1c(-c2ccc(NC(=O)C3CC4(COC4)C3)cn2)nnn1C)c1cccnc1Cl [Compound 42, (R)-1-(2-chloropyridin-3-yl)ethyl (4-(5-(2-oxaspiro[3.3]heptane-6-carboxamido)pyridin-2-yl)-1-methyl-1H-1,2,3-triazol-5-yl)carbamate] | 201 nM
22 | C[C@@H](OC(=O)Nc1c(-c2ccc(NC(=O)C3CS(=O)(=O)C3)cn2)nnn1C)c1cccnc1Cl [Compound 43, (R)-1-(2-chloropyridin-3-yl)ethyl (4-(5-(1,1-dioxidothietane-3-carboxamido)pyridin-2-yl)-1-methyl-1H-1,2,3-triazol-5-yl)carbamate] | 497 nM
23 | C[C@@H](OC(=O)Nc1c(-c2ccc(NC(=O)C34CC(C5COC5)(C3)C4)cn2)nnn1C)c1cccnc1Cl [Compound 44, (R)-1-(2-chloropyridin-3-yl)ethyl (1-methyl-4-(5-(3-(oxetan-3-yl)bicyclo[1.1.1]pentane-1-carboxamido)pyridin-2-yl)-1H-1,2,3-triazol-5-yl)carbamate] | 165 nM
24 | C[C@@H](OC(=O)Nc1c(-c2ccc(NC(=O)C34CC(C(F)F)(C3)C4)cn2)nnn1C)c1cccnc1Cl [Compound 45, (R)-1-(2-chloropyridin-3-yl)ethyl (4-(5-(3-(difluoromethyl)bicyclo[1.1.1]pentane-1-carboxamido)pyridin-2-yl)-1-methyl-1H-1,2,3-triazol-5-yl)carbamate] | 40.8 nM
25 | COC12CC(C(=O)Nc3ccc(-c4nnn(C)c4NC(=O)O[C@H](C)c4cccnc4Cl)nc3)(C1)C2 [Compound 46, (R)-1-(2-chloropyridin-3-yl)ethyl (4-(5-(3-methoxybicyclo[1.1.1]pentane-1-carboxamido)pyridin-2-yl)-1-methyl-1H-1,2,3-triazol-5-yl)carbamate] | 29.7 nM
26 | C[C@@H](OC(=O)Nc1c(-c2ccc(NC(=O)C34CC(C)(C3)C4)cn2)nnn1C)c1cccnc1Cl [Compound 47, (R)-1-(2-chloropyridin-3-yl)ethyl (1-methyl-4-(5-(3-methylbicyclo[1.1.1]pentane-1-carboxamido)pyridin-2-yl)-1H-1,2,3-triazol-5-yl)carbamate] | 19.1 nM
27 | C[C@@H](OC(=O)Nc1c(-c2ccc(NC(=O)C3(C(F)(F)F)CCC3)cn2)nnn1C)c1cccnc1Cl [Compound 48, (R)-1-(2-chloropyridin-3-yl)ethyl (1-methyl-4-(5-(1-(trifluoromethyl)cyclobutane-1-carboxamido)pyridin-2-yl)-1H-1,2,3-triazol-5-yl)carbamate] | 22.8 nM
28 | C[C@@H](OC(=O)Nc1c(-c2ccc(NC(=O)C3CC3(C)C)cn2)nnn1C)c1cccnc1Cl (stereo partly drawn) [Compound 49, (R)-1-(2-chloropyridin-3-yl)ethyl (4-(5-(2,2-dimethylcyclopropane-1-carboxamido)pyridin-2-yl)-1-methyl-1H-1,2,3-triazol-5-yl)carbamate] | 353 nM
29 | C[C@@H](OC(=O)Nc1c(-c2ccc(NC(=O)[C@H]3C[C@@H]3C#N)cn2)nnn1C)c1cccnc1Cl [Compound 50, (R)-1-(2-chloropyridin-3-yl)ethyl (4-(5-((1S,2S)-2-cyanocyclopropane-1-carboxamido)pyridin-2-yl)-1-methyl-1H-1,2,3-triazol-5-yl)carbamate] | 1760 nM
30 | C[C@@H](OC(=O)Nc1c(-c2ccc(NC(=O)[C@@H]3C[C@H]3C#N)cn2)nnn1C)c1cccnc1Cl [Compound 51, (R)-1-(2-chloropyridin-3-yl)ethyl (4-(5-((1R,2R)-2-cyanocyclopropane-1-carboxamido)pyridin-2-yl)-1-methyl-1H-1,2,3-triazol-5-yl)carbamate] | 88.7 nM
